Laboratory results as given in patent publication US5922891A, “2-substituted 1,8-dihydroxy-9(10H)-anthracenone pharmaceuticals” (priority 1997, dated 1999).
Where two headings read alike, the source gives them in different places.

What was measured:
HaCaT cells [1] = test: Antiproliferative activity against HaCaT cells (human keratinocyte cell line); assay type: cell-based; settings: 48 h, read-out: AA IC50 (antiproliferative activity)
Procedure: HaCaT cells were grown in Dulbecco's modified Eagle's medium (DMEM, No. 041-11954A, Gibco) supplemented with 10% fetal calf serum, penicillin (100 U/mL), and streptomycin (100 μg/mL) in a humidified incubator containing 8% CO2 at 37° C. Cells (2.5·10^4 /1.1 ml per well) were seeded on 24-well multidishes and grown in DMEM. After 24 hours of growth, the medium was replaced with fresh medium and a test compound (0.1-5 μM) was added from freshly made stock solutions, which were prepared in DMSO and diluted with DMEM. The final concentration of DMSO in the culture medium was 0.2%. Controls were performed using DMSO or medium alone. Forty-eight hours after addition of a test compound to the culture, the medium was removed and each well was rinsed with phosphate-buffered saline (PBS, 100 μL). The cells were then incubated with sterile 0.5% trypsin, 0.2% EDTA in PBS for 20 minutes at 37° C. The detached cells from each well were suspended in DMEM and dispersed as single cells by gentle pipetting through an Eppendorf pipette. Cell growth was determined directly by counting the keratinocytes on a Neubauer counting chamber using phase contrast microscopy. Inhibition of cell proliferation was calculated by a comparison of the mean value of the test compound (N=3) with the control (N=6-8) activity: (1-test compound/control)×100.

[2] = Inhibition of AAPH-induced lipid peroxidation in bovine brain phospholipid liposomes; assay type: biochemical; settings: AAPH-induced; bovine brain phospholipid liposomes; N = 3 or more; read-out: LPO IC50 (inhibition of lipid peroxidation)
Procedure: Phospholipids were prepared essentially as described by Gutteridge, J. M. C., (Anal. Biochem., 82: 76-82 (1977)). Bovine brain tissue was cooled on ice, freed from blood vessels and washed repeatedly with 0.15 M NaCl, pH 7.4. The tissue was cut into pieces and then macerated with an ultra-turrax, passed through a fine-meshed sieve, and extracted four times with four times the volume of acetone. The extraction mixture was filtered by suction to remove the acetone, the residue dried under vacuum, and then repeatedly extracted with petroleum ether (40-60) using twice the volume of the original brain homogenate. The combined extracts were filtered, dried at 45° C., and dissolved in ether (one fifth the original brain volume). The mixture was treated with five times the volume of acetone, and the resulting precipitate was collected by suction-filtration, dried and stored under N2 at -20° C. in the dark. Bovine brain phospholipids were weighed into glass tubes and shaken in a vortex mixer (Heidolph) in the presence of five small glass beads (.phi. 4 mm) for 1 minute. The phospholipids were suspended in 0.15 M NaCl, pH 7.4, to a final concentration of 5 mg/ml. The mixture was purged with N2 for 1 minute and vigorously dispersed in a vortex mixer for 5 minutes. The liposomes were allowed to swell for 1 hour at 4° C., and vesicles with a mean size of 1-10 μm were obtained according to the method of Bangham, et al., (J. Mol. Biol., 13:238-252 (1965). The liposomes were stimulated with the azo initiator 2 2'-azobis (2-amidinopropane) hydrochloride according to the method of Gutteridge, J. M. C., (Anal. Biochem. 82:76-82 (1977)).
The following reagents were added to the glass tubes containing stimulating bovine brain phospholipid piposomes in the order and at the final concentrations listed: 0.3 ml HK2 PO4 --KOH buffer, pH 7.4 (30 mM), 0.29 ml double distilled H2 O, 0.2 ml liposomes (1 mg/ml), 0.2 ml FeCl3.H2 O (0.1 mM), 0.01 ml 2-substituted anthracenone compound of the invention (variable concentrations).
Appropriate blanks and controls using the vehicle (acetone) were conducted. The final reaction volumes were standardized to 1.0 ml. The reaction mixtures were incubated for 1 hour at 37° C. in a shaking water bath. […] of 20% (w/v) BHT, 0.5 ml 25% (w/v) HCl and 0.5 ml of 1% 2-thiobarbituric acid were added and the samples were heated at 100° C. for 15 minutes and then cooled in an ice bath (5 minutes). 2 ml of 1-butanol were added and the mixtures were vigorously shaken in a vortex mixer (Heidolph) for 15 seconds. The organic layer was separated by centrifugation at 3000 rpm (15 minutes) and absorbance at 532 nm was measured against butanol.

[3] = Deoxyribose degradation as a measure of hydroxyl radical formation; assay type: biochemical; settings: 75 μM test compound; controls < 0.1
Procedure: ^c Deoxyribose degradation as a measure of hydroxyl radical formation
Indicated values are μmoles of malondialdehyde per mmole of deoxyribos
released by 75 μM test compound (controls < 0.1).
Degradation of deoxyribose provides a measurement of the amount of hydroxyl radical formation caused by the test compounds. The assay used to determine degradation of 2-deoxy-D-ribose followed generally the procedures of Gutteridge, J. M. C., Biochem. J., 224: 761-767 (1984) and Laughton, et al., Biochem. Pharmacol., 38: 2859-2865 (1989). The following reagents were added to glass tubes in the order and at the final concentrations listed. 0.3 mL kH2 PO4 --KOH buffer, pH 7.4 (30 mM), 0.2 ml double distilled H2 O, 0.2 ml 2-deoxy-D-ribose (2 mM), 0.2 ml FeCl3.6H2 O (0.1 mM), 0.1 ml 2-substituted anthracenone ([…]). Stock solutions of each of the 2-substituted anthracenone compounds were made up fresh before use. Appropriate blanks and controls using an acetronitrile vehicle were performed.
Final reaction volumes were standardized to 1.0 ml. The reaction mixtures were incubated for 2 hours at 37° C. in a shaking water bath at 50 rpm. 1 ml of 2.8% (w/v) trichloracetic acid and 1 ml of 1% (w/v in 0.05 N NaOH) 2-thiobarbituric acid (TBA) were added, and the samples were heated at 100° C. for 15 minutes and then cooled in an ice bath (5 minutes). 2 ml of each reaction mixture was treated with 0.05 ml of 36% (w/v) HCl and 2 of 1-butanol, followed by vigorous shaking with a vortex mixer (Heidolph) for 15 seconds. The organic layer was separated by centrifugation at 3000 rpm (15 minutes) and absorbance at 532 nm was measured against butanol. Calibration was performed using a malondialdehyde (MDA) standard prepared by hydrolysis of 1,1,3,3-tetraethoxypropane (Gutteridge, J. M. C., Anal. Biochem., 69: 518-526 (1975). TBA reactive material was expressed in terms of μmol MDA per μmol deoxyribose. The results of the assay are provided in Table I.

5-LO in bovine PMNL = target: T1, 5-LO in bovine PMNL (Bos taurus, UniProt F1MQ78); test: Inhibition of 5-lipoxygenase (5-HETE and LTB4 biosynthesis) in Ca-ionophore-stimulated bovine PMNL; assay type: cell-based
T1 construct: The purified PMNLs were suspended at a concentration of; endogenous in cells; host or cells: polymorphonuclear leukocytes isolated from bovine blood
T1 sequence (F1MQ78 1-674): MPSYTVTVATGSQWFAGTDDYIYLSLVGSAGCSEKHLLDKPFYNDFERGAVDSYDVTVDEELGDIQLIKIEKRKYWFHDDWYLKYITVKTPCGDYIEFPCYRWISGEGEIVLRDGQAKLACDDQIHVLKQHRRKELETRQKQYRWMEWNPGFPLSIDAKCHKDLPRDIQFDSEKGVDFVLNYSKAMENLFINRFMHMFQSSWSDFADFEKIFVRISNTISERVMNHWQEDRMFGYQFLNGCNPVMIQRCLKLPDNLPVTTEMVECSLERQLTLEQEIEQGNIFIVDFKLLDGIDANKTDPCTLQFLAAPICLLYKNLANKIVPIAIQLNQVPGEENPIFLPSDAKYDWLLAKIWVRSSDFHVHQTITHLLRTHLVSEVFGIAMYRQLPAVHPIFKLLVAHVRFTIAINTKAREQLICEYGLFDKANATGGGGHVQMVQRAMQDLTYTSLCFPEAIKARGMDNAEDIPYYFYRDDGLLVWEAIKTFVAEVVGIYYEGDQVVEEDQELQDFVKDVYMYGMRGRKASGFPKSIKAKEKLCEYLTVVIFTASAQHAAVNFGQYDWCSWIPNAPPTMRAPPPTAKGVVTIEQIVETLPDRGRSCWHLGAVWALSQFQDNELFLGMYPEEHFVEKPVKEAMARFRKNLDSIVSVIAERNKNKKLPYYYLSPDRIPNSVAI
Procedure: Briefly, PMNLs were prepared from sodium EDTA-anticoagulated bovine blood, essentially as described by Walstra, P. et al., (Biochem. Biophys. Acta, 795:499-503 (1984)). Contaminating platelets were removed by repeated centrifugations at 100 g for 20 minutes. […] Cell counts were conducted with a Sysmex micro cell counter CC-130. Preincubation was performed with 2.4 ml of the suspension and 10 μl of a DMSO stock solution of test compounds at the desired concentrations in phosphate buffered saline (PBS) or vehicle control (DMSO at final concentration of 0.4%) for 15 minutes at 37° C. in a shaking water bath at 50 rpm. […] The incubation mixture was held on ice bath for 20 minutes and then centrifuged at 4000 g for 5 minutes at 0° C. The supernatant was diluted with 5 ml of water and passed through a prewashed (10 ml of methanol and 5 ml of water, sequentially) octadecylsilane reversed phase cartridge (Baker). The eicosanoids were eluted with 3 ml of methanol, diluted with 3 ml of water and subjected to reversed phase HPLC analysis using a 250×4 mm column packed with Nucleosil C18 (7 μm particles; Bischoff, Leonberg, Germany). The isocratic elution conditions of LTB4 were tetrahydrofuran (THF)/methanol/water/acetic acid (25+30+45+0.1), adjusted to pH 5.5 with concentrated NH3, at a flow rate of 0.9 ml/min (Kontron 420 pump), monitored at 280 nm with a Kontron 735 LC UV detector. 5-HETE was monitored at 232 nm using methanol/water/acetic acid (77+23+0.1), pH 5.5 and a flow rate 1.0 ml/min. Data were recorded on a MacLab data acquisition system (WissTech, Germany) and analysis was performed using the application Peaks on an Apple Macintosh Quadra 700 computer. Integrated areas of the peaks were compared to a PGB2 internal standard and to external standards of authentic samples. Molar absorption coefficients of Samuelsson et al., Borgeat, P. and B. Samuelsson, (Proc. Natl. Acad. Sci. USA, 76:2148-2152 (1979)), were used for making calculations. Inhibition was calculated by a comparison of the mean value of test compound (n=3) with control (n=6-8) activity: (1-test compound/control)×100.
See Walstra, P. et al., Biochem Biophys. Acta, 795:499-503 (1984); and Dannhardt et al. J. Pharm. Pharmacol., 44:419-424 (1992). […] (Schroder, J. M., J. Invest. Dermatol., 87:624-629 (1986); Tanzer, et al., Arch. Pharm. (Weinheim), 324:841-846 (1991)).

[4] = test system: LTB4 production in human neutrophils; settings: depending on cell density, read-out: IC50, inhibition of LTB4 production, human neutrophils; cited from earlier work
HaCaT cells [5] = settings: cited from earlier work
[6] = psoriasis therapy; cited from earlier work
[7] = cited from earlier work

SMILES | IC50 (HaCaT cells [1]) [µM] | IC50 [2] [µM] | DD (deoxyribose degradation, malondialdehyde released) [3] | IC50 (5-LO in bovine PMNL; N = 3 or more) [µM] | IC50 (5-LO in bovine PMNL; comparison with compounds of the invention, read-out: IC50) [µM] | IC50 [4] [µM] | sensitivity of HaCaT cells to antiproliferative action (HaCaT cells [5]) | side effects of anthralin therapy [6] | lipid peroxidation in the presence of iron [7]
CN(O)C(=O)Cc1ccc2c(c1O)C(=O)c1c(O)cccc1C2 [ID, N-Hydroxy-N-methyl-(9,10-dihydro-1,8-dihydroxy-9-oxo-2-anthracene)acetamide] | 0.8 | 29 | 1.67 ± 0.08 μmol of MDA/mmol |  |  |  |  |  | 
CC(C)C(C(=O)N(C)O)c1ccc2c(c1O)C(=O)c1c(O)cccc1C2 (stereo not shown) [VIIID, N-Hydroxy-N-methyl-2-(9,10-dihydro-1,8-dihydroxy-9-oxo-2-anthracene)-3-methylbutanamide] | 1.5 | 12.5 | 0.86 ± 0.01 μmol of MDA/mmol |  |  |  |  |  | 
O=C(O)CCCCc1ccc2c(c1O)C(=O)c1c(O)cccc1C2 [IVA, 5-(9,10-Dihydro-1,8-dihydroxy-9-oxo-2-anthracene) pentanoic acid] | > 5 | 105 | 2.62 ± 0.41 μmol of MDA/mmol |  |  |  |  |  | 
CCCCOc1ccc(CC(=O)NO)cc1 [bufexamac, reference compound] | > 5 | > 200 |  | > 30 | > 30 |  |  |  | 
O=C1c2c(O)cccc2Cc2cccc(O)c21 [anthralin] | 0.5 to 0.7 |  | 2.89 ± 0.14 μmol of MDA/mmol |  |  | 7 to 74 | extremely sensitive target for the antiproliferative action of anthralin | increased inflammation and irritation of non-effected skin surrounding treated lesions | enhancement of anthralin-induced lipid peroxidation in the presence of iron
O=C1c2c(O)cccc2Cc2ccc(C(CCc3ccccc3)C(=O)O)c(O)c21 (stereo not shown) [XA, 2-(9,10-Dihydro-1,8-dihydroxy-9-oxo-2-anthracene)-4-phenylbutanoic acid] | > 5 | 62 | 2.47 ± 0.16 μmol of MDA/mmol |  |  |  |  |  | 
CC(C)C(C(=O)O)c1ccc2c(c1O)C(=O)c1c(O)cccc1C2 (stereo not shown) [VIIIA, 2-(9,10-Dihydro-1,8-dihydroxy-9-oxo-2-anthracene)-3-methylbutanoic acid] | > 5 | 155 | 3.58 ± 0.30 μmol of MDA/mmol |  |  |  |  |  | 
O=C(CCCCc1ccc2c(c1O)C(=O)c1c(O)cccc1C2)NO [IVC, N-Hydroxy-5-(9,10-dihydro-1,8-dihydroxy-9-oxo-2-anthracene)pentanamide] | 2 | 62 | 1.38 ± 0.09 μmol of MDA/mmol |  |  |  |  |  | 
